Source: patent US20050123936A1, “Method, composition, and kit to design, evaluate, and/or test compounds that modulate regulatory factor binding to nucleic acids” (priority 2003, published 2005)
Ends that are not written are not given here. Hoechst 33258 analog = not defined here

Experiments:
double-stranded DNA = conditions: Behrens et al. (2001); cited from earlier work
[1] = target: TGGTCA matched site on 250-bp EcoRI/PvuII restriction fragment from plasmid pDEH9; experiment: Quantitative DNase I footprint titration, matched site; assay type: binding; conditions: 12 h at 22° C., TKMC buffer pH 7.0, read-out: Equilibrium Dissociation Constants Kd, TGGTCA
Description: (§1) Quantitative DNaseI footprinting can be used to determine the equilibrium association constants for binding to match and mismatch sites. Footprinting experiments are generally performed on 3′- and/or 5′-^32P end restriction fragments derived from plasmids. 3′-shifted cleavage patterns are consistent with location of the polyamide in the minor groove. Typical reaction conditions are: 10 mM Tris-HCl, 10 mM KCl, 10 mM MgCl2, 5 mM CaCl2, pH 7.0, and 22° C. See Brenowitz et al. (1986). Methods Enzymol. 130:132-181; Fox & Waring (1984) Nucleic Acids Res. 12:9271-9285; and Brenowitz et al. (1986) Proc. Natl. Acad. Sci. U.S.A. 83: 8462-8466.
DNase I Footprinting: Dissociation constants for the DNA binding of compounds 1, 2 and 3 were obtained following published protocols. All reactions were carried out in 400 μL total volume employing 20 kcpm of a 3′-radiolabelled 250-bp restriction fragment from the plasmid pDEH9 (FIG. 1a) (SEQ. ID. NO: 4). […]
FIGS. 1b, 1c, and 1d are quantitative DNAse I footprint titration experiments for compounds 1, 2 and 3 on the 3′^−32 P-labeled 250-bp EcoRI/PvuII restriction fragment from the plasmid pDEH9. […]
The DNA-binding properties of the compounds 1-3 were investigated by quantitative DNase 1 footprinting assays. […]

[2] = system: TGGCCA mismatch site on 250-bp EcoRI/PvuII restriction fragment from plasmid pDEH9; experiment: Quantitative DNase I footprint titration, mismatch site TGGCCA; assay type: binding
Description: as §1
(§2) DNase I Footprinting: Dissociation constants for the DNA binding of compounds 1, 2 and 3 were obtained following published protocols. All reactions were carried out in 400 μL total volume employing 20 kcpm of a 3′-radiolabelled 250-bp restriction fragment from the plasmid pDEH9 (FIG. 1a) (SEQ. ID. NO: 4). No carrier DNA was used in the equilibration, and the solutions were allowed to equilibrate for 12 h at 22° C. in TKMC buffer (10 mM TRIS, 10 mM KCl, […], 5 mM CaCl2 pH 7.0) prior to the DNase I digestion. Reaction products (8 kcpm) were resolved on denaturing 8% polyacrylamide sequencing gels run at 55 W.
(§3) FIGS. 1b, 1c, and 1d are quantitative DNAse I footprint titration experiments for compounds 1, 2 and 3 on the 3′^−32 P-labeled 250-bp EcoRI/PvuII restriction fragment from the plasmid pDEH9. Lane 1: Intact DNA. Lane 2: A-reaction. Lane 3: G-reaction. Lane 4: DNAse 1 standard.
(§4) The DNA-binding properties of the compounds 1-3 were investigated by quantitative DNase 1 footprinting assays. The equilibrium binding constants of each of the compounds for a matched versus three single base pair mismatch sites is compiled in Table 1. The lower strand sequence is shown in the header. Mismatched base pairs are underlined. The residue under the YPWM peptide is in bold. Relative specificities are given in square brackets.

[3] = system: TGGGCA mismatch site on 250-bp EcoRI/PvuII restriction fragment from plasmid pDEH9; experiment: Quantitative DNase I footprint titration, mismatch site TGGGCA; assay type: binding
Description: as §1, §2, §3, §4

[4] = system: AGCTCA mismatch site on 250-bp EcoRI/PvuII restriction fragment from plasmid pDEH9; experiment: Quantitative DNase I footprint titration, mismatch site AGCTCA; assay type: binding
Description: as §1, §2, §3, §4

[5] = target: T1, extradenticle (Exd) protein (residues 238-324) (Drosophila melanogaster, UniProt P40427); experiment: EMSA: recruitment of Exd to its cognate DNA site by polyamides 1-3; assay type: binding; conditions: saturating 50 nM compound, Exd 0-100 nM
T1 construct: comprising the homeodomain and the extended fourth helix (residues 238-324); made in house
T1 sequence (P40427 238-324): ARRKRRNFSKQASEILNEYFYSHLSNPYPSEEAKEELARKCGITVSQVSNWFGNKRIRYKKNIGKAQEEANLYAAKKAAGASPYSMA
Excerpt: Protein expression: Drosophila extradenticle (Exd) protein comprising the homeodomain and the extended fourth helix (residues 238-324), as well as ultrabithorax (Ubx) protein homeodomain (residues 233-313 of the Ubx isoform IVa) were expressed and purified after Passner & Aggarwal. The purified proteins Exd and Ubx were used for EMSA studies as described below.
(§5) For the templates, the DNA oligonucleotides depicted in FIGS. 2a, 2b, 2c, and 2d were used, SEQ. ID NOS: 5, 6, 7, and 8, respectively. The DNA upper strand was annealed with the respective matching lower strand and both strands were 5′-labeled with γ-^32P-ATP and polynucleotide kinase, using standard procedures.
Gel-shift experiments: The master mix contained 50% BSA/50% glycerol, reaction buffer (150 mM potassium glutamate, 50 mM HEPES pH 7.0, 1 mM DTT, and 5′-end labeled DNA (^32P) The final concentrations in the samples were 100 ng/μL BSA and 10% glycerol. Polyamides were kept in subdued lighting whenever possible. Upon addition of the polyamide to 1 pM DNA, the samples were incubated at 25 °C. for 30 minutes in a 20 μL reaction. Next, Exd was added to the samples and incubated for 1 hour at 4° C. A 9% acrylamide/3% glycerol gel was pre-run for 15 min prior to loading. In each lane 15 μL of a 20 μL reaction were loaded while the gel was running to prevent the samples from being diluted. The gels were run at 4° C./185 V. Gels were dried, exposed to a phosphorimager screen, and visualized using a Molecular Dynamics phosphorimager.
FIGS. 3a and 3b: EMSA studies with polyamides 1-3, Exd and Ubx. In FIG. 3a, each polyamide binds and decreases the mobility of free DNA (lanes 2-18). […] In lanes 2-6,8-12, 14-18, Exd was added in following concentrations: 0, 3, 10, 30, 100 nM. Lanes 19 and 20 contained DNA bearing the Exd-Ubx binding site that was used in X-ray crystal structure determination (see methods above for sequence). In the reaction shown in lane 20, 275 nM Ubx and 30 nM Exd were incubated with DNA. […]

[6] = system: DNA duplex templates (FIG. 2a optimal; FIG. 2c mismatch in PA binding site); experiment: EMSA: binding of polyamides to the DNA duplex templates; conditions: even at 100 nM concentrations
Excerpt: as §5
FIGS. 2a, 2b, 2c and 2d show depict the DNA duplexes used for the EMSA studies. The binding site for the Exd protein is marked by a box, the polyamide or Hox protein binding site is shown in boldface, FIG. 2a depicts the optimal template. FIG. 2b depicts a 2-bp mismatch in the Exd site. FIG. 2c depicts a 2-hp mismatch in the PA binding site. FIG. 2d depicts a composite Ubx-Exd binding site (see Passner et al. (1999) Nature, 397:714-719). […]

Exd = target: T2, Exd (Drosophila melanogaster, UniProt P40427); experiment: Example 7 EMSA: recruitment of Exd by linker compounds; assay type: binding
T2 construct: comprising the homeodomain and the extended fourth helix (residues 238-324); made in house
T2 sequence (P40427 238-324): T1 sequence (P40427 238-324)
Description: The assays were performed with 50 nM of the conjugate pre-incubated with target DNA (thus to bind the anchor moiety to the target nucleic acid) followed by the addition and incubation with Exd.
To determine the effects of longer linker on binding, the ability of compounds using linkers 1, 2 and 4 to recruit Exd at three different temperatures was investigated.

[7] = relative to matched site TGGTCA

| Kd [1] [nM] | Relative specificity (square brackets), TGGCCA [2, 7] | Kd ([2]; single base pair mismatch site, 22° C., TKMC buffer, read-out: Equilibrium Dissociation Constants Kd, TGGCCA) [nM] | Relative specificity (square brackets), TGGGCA [3, 7] | Kd ([3]; single base pair mismatch site, 22° C., TKMC buffer, read-out: Equilibrium Dissociation Constants Kd, TGGGCA) [nM] | Relative specificity (square brackets), AGCTCA [4, 7] | Kd ([4]; single base pair mismatch site, 22° C., TKMC buffer, read-out: Equilibrium Dissociation Constants Kd, AGCTCA) [nM] | ability to recruit Exd to its cognate DNA site (Exd binding) ([5]; listed as Compound 2) | ability to recruit Exd to its cognate DNA site (Exd binding) ([5]; listed as compound 2) | binding to mutated template (polyamide-binding site eliminated) [6] | ability to recruit Exd (Exd; physiological temperatures (37° C.)) | ability to recruit Exd (Exd; room temperature (23° C.)) | Substance | higher affinity for double-stranded DNA than the Hoechst analog itself (double-stranded DNA) |
| --- | --- | --- | --- | --- | --- | --- | --- | --- | --- | --- | --- | --- | --- |
| – | – | – | – | – | – | – | – | – | – | – | – | Hoechst 33258 analog-KSPKKAKK polypeptide: Hoechst 33258 analog bonded to the N-terminus of the cationic polypeptide KSPKKAKK (Behrens et al.) ({Hoechst 33258 analog}-KSPKKAKK; reading uncertain) | approximately 10 fold |
| 5.8 ± 0.8 | 1.4 | 7.9 ± 1.6 | 17 | ≥ 0.1 | 1.1 | 6.4 ± 1.1 | capable of recruiting Exd to DNA | binds DNA with very high affinity | did not bind | fails to do so effectively | capable of recruiting Exd | Cmpd 2 (FYPWMKG) | – |
